Measurements: patent publication US9938261B2, “Heterocyclic compounds and methods of use thereof” (AMBIT BIOSCIENCES CORPORATION, priority 2011, dated 2018)

Key:
CSF1R [1] = biological target: T1, CSF1R (Homo sapiens, UniProt P07333); experiment: Competition binding assay, CSF1R Kd; parameters: made in house; settings: competition binding
How it was run: (§1)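 Kd values came from eleven-point threefold dilutions of compound, measured by qPCR of kinase eluted from affinity-ligand beads after 1 h equilibrium binding at room temperature. Kinase was either T7-phage fused or HEK-293-expressed with a DNA tag.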

CSF1R [2] = biological target: T1, CSF1R; experiment: HEK293 CSF1R phosphorylation MSD assay; assay type: cell-based; parameters: expressed in transfected cells; host or cells: HEK293; settings: HEK293 cells, M-CSF stimulated CSF1R phosphorylation, MSD; read-out: HEK293 pCSF1R M-CSF MSD:IC50
How it was run: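 Ligand-induced CSF1R autophosphorylation was measured by MSD sandwich assay: CSF1R-FKBP from lysates captured via FK506, anti-phosphotyrosine readout. Cells were exposed to compound for 2 h (9-point, half-log, 0.5% DMSO) before 5 min 50 ng/mL M-CSF. Reported IC50 is the mean of duplicate-plate IC50s relative to DMSO control.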

M-NFS-60 cells = experiment: M-NFS-60 cell proliferation assay (Alamar Blue); assay type: cell-based, mouse; settings: Mus musculus; M-NFS-60 cell proliferation; read-out: CSF1R M-NFS-60 CTB:IC50
How it was run: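 Alamar Blue reduction (3 h; 560/590 nm) measured viability after 72 h, 37 °C treatment with nine half-log compound concentrations at 0.5% DMSO. Cells: M-CSF-dependent (20 ng/mL) murine M-NFS-60 in RPMI plus 10% FBS. IC50s, averaged from duplicates, reflect half-maximal inhibition of proliferation relative to control.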

PDGFRβ = biological target: T2, PDGFRβ (Homo sapiens, UniProt P09619); experiment: Competition binding assay, PDGFRβ Kd; settings: competition binding
T2 construct: made in house
T2 sequence (P09619 33-1106): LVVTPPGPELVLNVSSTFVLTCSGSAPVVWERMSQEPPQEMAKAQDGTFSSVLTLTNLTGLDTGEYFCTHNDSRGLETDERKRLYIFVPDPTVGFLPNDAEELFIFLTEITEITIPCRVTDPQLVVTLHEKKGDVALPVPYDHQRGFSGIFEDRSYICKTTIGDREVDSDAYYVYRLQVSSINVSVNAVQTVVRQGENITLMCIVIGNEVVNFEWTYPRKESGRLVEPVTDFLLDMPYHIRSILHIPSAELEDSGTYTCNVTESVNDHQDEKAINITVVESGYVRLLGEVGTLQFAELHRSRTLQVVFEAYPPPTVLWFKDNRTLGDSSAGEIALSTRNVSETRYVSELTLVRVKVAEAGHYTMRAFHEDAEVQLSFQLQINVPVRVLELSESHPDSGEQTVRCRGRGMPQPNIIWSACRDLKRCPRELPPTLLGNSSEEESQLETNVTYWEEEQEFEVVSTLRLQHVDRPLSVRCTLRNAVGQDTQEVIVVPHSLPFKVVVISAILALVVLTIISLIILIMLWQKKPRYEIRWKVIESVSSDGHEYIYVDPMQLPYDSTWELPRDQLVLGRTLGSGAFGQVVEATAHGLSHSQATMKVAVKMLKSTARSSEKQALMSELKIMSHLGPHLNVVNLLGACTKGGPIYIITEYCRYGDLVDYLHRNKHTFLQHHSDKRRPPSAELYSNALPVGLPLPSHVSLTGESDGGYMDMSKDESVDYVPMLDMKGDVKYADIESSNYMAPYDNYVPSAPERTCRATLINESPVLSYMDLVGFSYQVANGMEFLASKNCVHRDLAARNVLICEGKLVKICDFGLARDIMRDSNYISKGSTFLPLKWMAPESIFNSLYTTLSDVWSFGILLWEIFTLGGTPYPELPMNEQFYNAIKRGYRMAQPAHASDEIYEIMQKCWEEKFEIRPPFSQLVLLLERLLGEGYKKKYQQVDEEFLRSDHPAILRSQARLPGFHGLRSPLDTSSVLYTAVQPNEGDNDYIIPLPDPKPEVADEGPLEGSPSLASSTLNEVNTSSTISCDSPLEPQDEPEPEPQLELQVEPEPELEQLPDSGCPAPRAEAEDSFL
How it was run: as §1

KIT = biological target: T3, KIT (Homo sapiens, UniProt P10721); experiment: Competition binding assay, KIT Kd; settings: competition binding
T3 construct: made in house
T3 sequence (P10721 26-976): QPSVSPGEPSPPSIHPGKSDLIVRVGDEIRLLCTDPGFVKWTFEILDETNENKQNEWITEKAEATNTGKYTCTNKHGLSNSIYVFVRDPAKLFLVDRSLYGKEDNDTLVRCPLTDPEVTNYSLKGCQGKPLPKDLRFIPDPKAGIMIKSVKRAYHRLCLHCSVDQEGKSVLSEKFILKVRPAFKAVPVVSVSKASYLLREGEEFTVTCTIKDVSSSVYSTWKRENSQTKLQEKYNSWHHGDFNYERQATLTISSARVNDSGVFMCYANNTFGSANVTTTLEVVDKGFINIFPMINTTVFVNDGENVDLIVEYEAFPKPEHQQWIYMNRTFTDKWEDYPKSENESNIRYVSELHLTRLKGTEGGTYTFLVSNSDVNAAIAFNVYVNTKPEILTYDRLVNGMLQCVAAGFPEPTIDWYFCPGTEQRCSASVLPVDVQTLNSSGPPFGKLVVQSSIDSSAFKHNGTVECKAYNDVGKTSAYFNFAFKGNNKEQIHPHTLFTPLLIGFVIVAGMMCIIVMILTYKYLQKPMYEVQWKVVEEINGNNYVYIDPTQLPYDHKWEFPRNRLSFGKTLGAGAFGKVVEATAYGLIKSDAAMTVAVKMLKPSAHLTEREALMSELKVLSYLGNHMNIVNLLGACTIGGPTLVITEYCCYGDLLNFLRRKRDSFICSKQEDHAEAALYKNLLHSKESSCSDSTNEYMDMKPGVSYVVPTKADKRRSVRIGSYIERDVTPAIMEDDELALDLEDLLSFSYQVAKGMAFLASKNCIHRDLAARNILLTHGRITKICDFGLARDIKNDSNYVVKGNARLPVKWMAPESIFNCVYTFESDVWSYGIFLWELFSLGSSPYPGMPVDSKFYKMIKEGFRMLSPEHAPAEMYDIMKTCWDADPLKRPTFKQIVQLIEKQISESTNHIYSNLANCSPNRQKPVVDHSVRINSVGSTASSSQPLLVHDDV
How it was run: as §1

T1 sequence (P07333 20-972): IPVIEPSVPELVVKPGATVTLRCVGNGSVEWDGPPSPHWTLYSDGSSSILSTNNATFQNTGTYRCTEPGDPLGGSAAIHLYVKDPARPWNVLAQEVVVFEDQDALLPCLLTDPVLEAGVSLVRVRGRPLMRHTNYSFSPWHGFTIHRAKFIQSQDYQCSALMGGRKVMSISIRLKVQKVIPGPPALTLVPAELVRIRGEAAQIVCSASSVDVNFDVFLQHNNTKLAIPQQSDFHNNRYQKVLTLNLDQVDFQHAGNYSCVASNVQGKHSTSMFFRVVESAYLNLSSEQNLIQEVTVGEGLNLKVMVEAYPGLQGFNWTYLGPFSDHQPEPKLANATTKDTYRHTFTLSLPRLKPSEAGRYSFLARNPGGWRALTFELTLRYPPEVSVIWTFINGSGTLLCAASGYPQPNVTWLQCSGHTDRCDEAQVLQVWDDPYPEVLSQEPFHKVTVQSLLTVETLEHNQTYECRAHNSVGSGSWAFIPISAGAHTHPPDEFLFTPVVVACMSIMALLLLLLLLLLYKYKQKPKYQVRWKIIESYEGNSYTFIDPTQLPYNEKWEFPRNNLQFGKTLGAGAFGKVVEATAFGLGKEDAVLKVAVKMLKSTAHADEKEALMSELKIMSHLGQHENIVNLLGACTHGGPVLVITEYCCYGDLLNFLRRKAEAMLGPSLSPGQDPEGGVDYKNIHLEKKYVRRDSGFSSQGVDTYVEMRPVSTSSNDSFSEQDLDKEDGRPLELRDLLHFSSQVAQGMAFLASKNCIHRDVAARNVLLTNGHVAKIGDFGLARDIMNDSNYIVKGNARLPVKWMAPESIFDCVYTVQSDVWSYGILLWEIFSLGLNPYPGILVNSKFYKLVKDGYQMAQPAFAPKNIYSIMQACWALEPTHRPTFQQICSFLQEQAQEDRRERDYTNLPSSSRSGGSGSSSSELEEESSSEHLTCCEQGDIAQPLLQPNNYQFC

| SMILES | Kd (CSF1R [1]) [nM] | IC50 (CSF1R [2]) [nM] | Kd (PDGFRβ) [nM] | Kd (KIT) [nM] | IC50 (M-NFS-60 cells) [nM] |
| --- | --- | --- | --- | --- | --- |
| OC[C@H]1CCCC[C@H]1Nc1nc2ccc(Cn3cnc4cc(Br)cnc43)cc2s1 [Example 136, ((1S,2R)-2-((6-((6-bromo-3H-imidazo[4,5-b]pyridin-3-yl)methyl)benzo[d]thiazol-2-yl)amino)cyclohexyl)methanol] | 5 to 20 | 50 to 200 | ≤ 50 | ≤ 100 | 50 to 400 |
| O[C@@H]1CCCC[C@H]1Nc1nc2ccc(Cn3cnc4cc(Cl)c(Cl)nc43)cc2s1 [Example 137, (1R,2R)-2-((6-((5,6-dichloro-3H-imidazo[4,5-b]pyridin-3-yl)methyl)benzo[d]thiazol-2-yl)amino)cyclohexanol] | ≤ 5 | ≤ 50 | ≤ 50 | ≤ 100 | ≤ 50 |
| N#Cc1cc2ncn(Cc3ccc4nc(N[C@@H]5CCCC[C@H]5O)sc4c3)c2nc1C#N [Example 139, 3-((2-(((1R,2R)-2-hydroxycyclohexyl)amino)benzo[d]thiazol-6-yl)methyl)-3H-imidazo[4,5-b]pyridine-5,6-dicarbonitrile] | 20 to 50 | 200 to 500 | 50 to 500 | 100 to 500 | 400 to 1500 |
| O[C@@H]1CCCC[C@H]1Nc1nc2ccc(Cn3cnc4cc(-n5cncn5)cnc43)cc2s1 [Example 145, (1R,2R)-2-((6-((6-(1H-1,2,4-triazol-1-yl)-3H-imidazo[4,5-b]pyridin-3-yl)methyl)benzo[d]thiazol-2-yl)amino)cyclohexanol] | ≤ 5 | ≤ 50 | ≤ 50 | 100 to 500 | 50 to 400 |
| N#Cc1cnc2c(c1)ncn2Cc1ccc2nc(N[C@@H]3CCCC[C@H]3O)oc2c1 [Example 124, 3-((2-(((1R,2R)-2-hydroxycyclohexyl)amino)benzo[d]oxazol-6-yl)methyl)-3H-imidazo[4,5-b]pyridine-6-carbonitrile] | 5 to 20 | 50 to 200 | ≤ 50 | ≤ 100 | 50 to 400 |
| CS(=O)(=O)c1ccc2c(c1)ncn2Cc1ccc2nc(N[C@@H]3CCCC[C@H]3O)sc2c1 [Example 112, (1R,2R)-2-((6-((5-(methylsulfonyl)-1H-benzo[d]imidazol-1-yl)methyl)benzo[d]thiazol-2-yl)amino)cyclohexanol] | 20 to 50 | 200 to 500 | 500 to 2000 | 500 to 2000 | > 1500 |
| CC(O)c1cnc2c(c1)ncn2Cc1ccc2nc(N[C@@H]3CCCC[C@H]3O)sc2c1 (stereo partly drawn) [Example 115, (1R,2R)-2-((6-((6-((R,S)-1-hydroxyethyl)-3H-imidazo[4,5-b]pyridin-3-yl)methyl)benzo[d]thiazol-2-yl)amino)cyclohexanol] | > 50 | 50 to 200 | 50 to 500 | 500 to 2000 | 50 to 400 |
| CCOc1ccc2c(c1)ncn2Cc1ccc2nc(N[C@@H]3CCCC[C@H]3O)sc2c1 [Example 138, (1R,2R)-2-((6-((5-ethoxy-1H-benzo[d]imidazol-1-yl)methyl)benzo[d]thiazol-2-yl)amino)cyclohexanol] | ≤ 5 | ≤ 50 | ≤ 50 | ≤ 100 | ≤ 50 |
| CS(=O)(=O)c1ccc2ncn(Cc3ccc4nc(N[C@@H]5CCCC[C@H]5O)sc4c3)c2c1 [Example 113, (1R,2R)-2-((6-((6-(methylsulfonyl)-1H-benzo[d]imidazol-1-yl)methyl)benzo[d]thiazol-2-yl)amino)cyclohexanol] | 20 to 50 | 200 to 500 | > 2000 | 500 to 2000 | > 1500 |

Now from value to compound, other results behind:

| Kd (CSF1R [1]) [nM] | IC50 (CSF1R [2]) [nM] | Kd (PDGFRβ) [nM] | Kd (KIT) [nM] | SMILES | IC50 (M-NFS-60 cells) [nM] |
| --- | --- | --- | --- | --- | --- |
| 5 to 20 | 50 to 200 | ≤ 50 | ≤ 100 | O[C@@H]1[C@H](O)CCC[C@H]1Nc1nc2ccc(Cn3cnc4cc(-n5cncn5)cnc43)cc2s1 [Example 234, (1R,2S,3R)-3-((6-((6-(1H-1,2,4-Triazol-1-yl)-3H-imidazo[4,5-b]pyridin-3-yl)methyl)benzo[d]thiazol-2-yl)amino)cyclohexane-1,2-diol] | 50 to 400 |
| 20 to 50 | > 500 | 500 to 2000 | > 2000 | O[C@@H]1CCCC[C@H]1Nc1nc2ccc(Cc3cnc4sccn34)cc2s1 [Example 157, (1R,2R)-2-((6-(imidazo[2,1-b]thiazol-5-ylmethyl)benzo[d]thiazol-2-yl)amino)cyclohexanol] | 400 to 1500 |
| ≤ 5 | ≤ 50 | ≤ 50 | ≤ 100 | O[C@@H]1CCCC[C@H]1Nc1nc2ccc(Cn3cnc4cc(-n5cccn5)ccc43)cc2s1 [Example 160, (1R,2R)-2-((6-((5-(1H-pyrazol-1-yl)-1H-benzo[d]imidazol-1-yl)methyl)benzo[d]thiazol-2-yl)amino)cyclohexanol] | ≤ 50 |
| ≤ 5 | 50 to 200 | 50 to 500 | ≤ 100 | O[C@@H]1CCCC[C@H]1Nc1nc2ccc(Cn3cnc4cc(F)cc(F)c43)cc2s1 [Example 148, (1R,2R)-2-((6-((5,7-difluoro-1H-benzo[d]imidazol-1-yl)methyl)benzo[d]thiazol-2-yl)amino)cyclohexanol] | 50 to 400 |
| 5 to 20 | ≤ 50 | 50 to 500 | 500 to 2000 | O[C@@H]1[C@H](O)CCC[C@H]1Nc1nc2ccc(Cc3cnc4cc(-n5nccn5)ccn34)cc2s1 [Example 231, (1R,2S,3R)-3-((6-((7-(2H-1,2,3-triazol-2-yl)imidazo[1,2-a]pyridin-3-yl)methyl)benzo[d]thiazol-2-yl)amino)cyclohexane-1,2-diol] | ≤ 50 |
| 5 to 20 | ≤ 50 | ≤ 50 | ≤ 100 | O[C@@H]1[C@H](O)CCC[C@H]1Nc1nc2ccc(Cc3cnc4cc(-n5cccn5)ccn34)cc2s1 [Example 229, (1R,2S,3R)-3-((6-((7-(1H-pyrazol-1-yl)imidazo[1,2-a]pyridin-3-yl)methyl)benzo[d]thiazol-2-yl)amino)cyclohexane-1,2-diol] | 50 to 400 |
| 5 to 20 | 50 to 200 | 50 to 500 | 500 to 2000 | O[C@@H]1CCCC[C@H]1Nc1nc2ccc(Cc3cnc4cc(-n5cncn5)ccn34)cc2s1 [Example 169, (1R,2R)-2-((6-((7-(1H-1,2,4-triazol-1-yl)imidazo[1,2-a]pyridin-3-yl)methyl)benzo[d]thiazol-2-yl)amino)cyclohexanol] | 50 to 400 |
| 5 to 20 | ≤ 50 | 50 to 500 | 100 to 500 | O[C@@H]1CCCC[C@H]1Nc1nc2ccc(Cn3cnc4cc(-n5cncn5)ccc43)cc2s1 [Example 161, (1R,2R)-2-((6-((5-(1H-1,2,4-triazol-1-yl)-1H-benzo[d]imidazol-1-yl)methyl)benzo[d]thiazol-2-yl)amino)cyclohexanol] | 50 to 400 |
| 5 to 20 | ≤ 50 | 50 to 500 | 100 to 500 | Cn1nnc(-c2ccc3c(c2)ncn3Cc2ccc3nc(N[C@@H]4CCCC[C@H]4O)sc3c2)n1 [Example 227, (1R,2R)-2-((6-((5-(2-methyl-2H-tetrazol-5-yl)-1H-benzo[d]imidazol-1-yl)methyl)benzo[d]thiazol-2-yl)amino)cyclohexanol] | ≤ 50 |
| 5 to 20 | > 500 | 500 to 2000 | 500 to 2000 | COc1ccc2ncc(Cc3ccc4nc(N[C@@H]5CCCC[C@H]5O)sc4c3)n2c1 [Example 165, (1R,2R)-2-((6-((6-methoxyimidazo[1,2-a]pyridin-3-yl)methyl)benzo[d]thiazol-2-yl)amino)cyclohexanol] | 400 to 1500 |
| ≤ 5 | ≤ 50 | ≤ 50 | ≤ 100 | C=Cc1ccc2c(c1)ncn2Cc1ccc2nc(N[C@@H]3CCC[C@@H](O)[C@H]3O)sc2c1 [Example 232, (1R,2S,3R)-3-((6-((5-vinyl-1H-benzo[d]imidazol-1-yl)methyl)benzo[d]thiazol-2-yl)amino)cyclohexane-1,2-diol] | ≤ 50 |
| 5 to 20 | > 500 | > 2000 | > 2000 | O[C@@H]1CCCC[C@H]1Nc1nc2c(F)cc(Cn3cnc4cccnc43)c(F)c2s1 [Example 168, (1R,2R)-2-((6-((3H-imidazo[4,5-b]pyridin-3-yl)methyl)-4,7-difluorobenzo[d]thiazol-2-yl)amino)cyclohexanol] | 400 to 1500 |
| 5 to 20 | ≤ 50 | ≤ 50 | ≤ 100 | O[C@@H]1CCCC[C@H]1Nc1nc2ccc(Cn3cnc4cc(OCCN5CCOCC5)ccc43)cc2s1 [Example 171, (1R,2R)-2-((6-((5-(2-morpholinoethoxy)-1H-benzo[d]imidazol-1-yl)methyl)benzo[d]thiazol-2-yl)amino)cyclohexanol] | 50 to 400 |
